# Entries after “also recorded” stand apart in the source; their conditions may differ.
# Legend:
# Jurkat cells [1] = experiment: Jurkat apoptosis assays (TMRE, caspase 3, Annexin V, viability by flow cytometry); type: cell-based
# Method: (§1) Jurkat cells were routinely set up in apoptosis assays at 2×10^5/ml in RPMI with 0.5% FBS. After treatment, cells were stained either with 200 nM TMRE, 5 μl/ml NucView™ (Biotium), or Annexin V-FITC (Roche) for 15 mins prior to analysis by flow cytometry. Forward- and side-scatter properties were used to exclude debris and a ‘viable’ gate corresponding to the intact, PI negative cell population was used for fluorescence analysis. For A549, cells at 90% confluency were treated with RB compounds for 48 hrs in DMEM with 0.5% FBS. After treatment, cells were released with trypsin and then stained with NucView™ prior to analysis by flow cytometry.
# Jurkat cells [2] = experiment: Immunoblotting of signalling and apoptosis markers in Jurkat cells; type: cell-based; details: 7.5 μM, time course
# Method: Jurkat cells were treated at 5×10^5/ml in RPMI with 0.5% FBS as detailed. Cells were harvested by centrifugation at 1500 g for 5 mins and washed with PBS prior to lysis in NP40 lysis buffer (10 mM Tris-HCl pH7.4, 137 mM NaCl, 10% glycerol, 1% NP40, protease inhibitor (Roche), 4 mM NaF, 2 mM Na-vanadate, 10 mM β-glycerophosphate, 1 mM Na-pyrophosphate, 1 mM Na-molybdate) for 30 minutes on ice with vortexing. The lysates were clarified at 13,000 rpm for 15 minutes at 4° C. and protein concentration determined using BCA assay (Pierce). 30-40 μg of lysate were run on to Criterion-XT 4-12% Bis-Tris gels (Bio-Rad), followed by transfer onto nitrocellulose. The filters were blocked for 30 minutes at room temperature in TNT buffer (10 mM Tris-HCl pH8, 150 mM NaCl, 0.05% Tween-20) containing blocking buffer (Roche), prior to incubation with antibodies over night. Antibodies used were from Cell Signalling; Phospho-p38 MAPK(#4571), Phospho-SAPK/JNK(81E11), Phospho-p44/42 MAP kinase (#9101), Phospho-AKT S473 (#9271), p44/42 MAP kinase (#9102), AKT (#9272), BID (#2002), caspase-3 (#9602), PARP (#9542), and Santa Cruz Biotechnology; pan 14-3-3 K19 (sc-629). Following antibody binding, filters were washed in TNT for 1 hr at room temperature, incubated with 1/12,500 anti-rabbit or anti-mouse HRP secondary antibody (Pierce) for 1 hr at room temperature and finally washed for 1 hr with TNT before incubation with Clarity western ECL reagent (Bio-Rad). Filters were exposed on a LAS 4000 imager. Blots were analysed using Multi-gauge/Colony software FUJI FILM).
# A549 cells [3] = experiment: A549 cell viability by MTS assay; type: cell-based, human; details: 48 hrs treatment
# Method: A549 cells (2500/well) were plated in 96 well trays in DMEM with 0.5% FBS and cultured at 37° C. with 5% CO2 overnight. The following day RB compounds were added and cells incubated for a further 48 hours prior to removal of the medium and replacement with MTS reagent diluted 1:6 in Dulbecco's PBS. The cells were incubated at 37° C. for a further 4 hours and the conversion of MTS to the coloured formazan compound determined by measurement of absorbance at 490 nm.
# A549 cells [4] = experiment: A549 caspase-3 activation (NucView, flow cytometry); type: cell-based, human; details: 48 hrs treatment
# Method: as §1
# A549 cells [5] = experiment: A549 colony assay in soft agar; type: cell-based, human; details: 14 days
# Method: A549 cells (7500) were plated in 0.33% low-melting point agarose in DMEM with 10% FBS with and without RB compounds over a 0.5% low-melting point agarose base. Cells were incubated at 37° C. with 5% CO2 for 14 days and then colonies were photographed and analysed using Image J.
# [6] = Toxicity of daily intraperitoneal dosing in mice; type: in vivo, Balb/C nude mice
# Method: Finally, we studied the effects of RB-012 in vivo. To assess any potential toxic effects, Balb/C nude mice were administered RB-012, delivered in saline, daily by intra-peritoneal injection at 5 mg/kg.
# A549 xenograft = A549 xenograft study; type: in vivo, BALB/c nude mice
# Method: All experimental procedures involving animals were conducted in accordance with the NHMRC Australian Code for the Care and Use of Animals for Scientific Purposes and with approval by the institutional animal ethics committee. BALB/c nude mice (Nu/Nu, female, 5-6 weeks old) were purchased from the Animal Resources Centre (Perth, Wash.) and maintained under pathogen-free conditions. A549 cells (5×106) in 100 μl PBS were injected subcutaneously into the flanks of the mice and the resulting tumour were measured using digital callipers. The tumour volume was calculated using the following formula: Volume=(larger diameter)×(small diameter)2/2. Once the tumours had reached 100 mm3, mice were divided into groups of 9 and each group administered either RB-012 in saline, FTY720 in saline or saline alone by intraperitoneal injection daily. Initially RB-12 and FTY720 were administered at 2 mg/kg for two days and then the dose was increased to 5 mg/kg for two weeks after which RB-012 was increased to 10 mg/kg but FTY720 maintained at 5 mg/kg. During this dosing regime tumours were monitored twice a week. Differences between samples were analysed using 2 way Anova and statistical significance was accepted at P<0.05.
# To assess the effect of RB-012 on human lung cancer growth in vivo, A549 cells were implanted subcutaneously on the flanks of Balb/C nude mice and tumours allowed to develop until they had reached a volume of 100 mm^3. RB-012 or saline was then administered daily to assess the effect on tumour growth. Initially, to reduce the cramping and encourage tolerance, 2 mg/kg RB-012 was administered for two days and then the dose was increased to 5 mg/kg daily for two weeks. Tumour volume was monitored twice a week and after two weeks of treatment mice administered RB-012 had tumours that were 20% smaller than mice receiving saline. […] The tumours on the RB-012 treated mice continued to grow more slowly and after the third week were 30% smaller than those of saline-treated mice (P<0.05). […] Therefore we were unable to increase FTY720 dosing to match RB-012.
# sphingosine kinases (SK) = experiment: Effect on sphingosine kinase (SK) activity; details: data not shown
smiles,measurement,setting,value
CCCCCCCCc1ccc(CC[N+]2(C)CCCCC2)cc1 [RB-012],"ED50 for apoptosis induction, in words",Jurkat cells [1],low micromolar range
same,Annexin V presentation,"Jurkat cells [1]; 5 μM, 24 hours",Annexin V presentation
same,cell viability,"Jurkat cells [1]; 5 μM, 24 hours",loss of viability
same,apoptosis as determined by caspase-3 activation,"Jurkat cells [1]; 5 μM, within 5 hours",readily able to activate apoptosis
same,time at which BID cleavage is detected,Jurkat cells [2],3 h
same,time at which PARP cleavage is detectable,Jurkat cells [2],2 h
same,time at which clipping of 14-3-3 protein is detectable,Jurkat cells [2],2 h
same,time to commitment to apoptosis,Jurkat cells [2],2 to 3 h
same,"cell viability / growth and survival (MTS), in words",A549 cells [3],inhibited
same,IC50,"A549 cells [3]; Homo sapiens, A549",5.5 µM
same,caspase-3 activation,A549 cells [4],induce caspase activation; also recorded: greater potency
same,colony formation in soft agar,A549 cells [5],slightly greater potency
same,time within which cramping after injection subsided,[6]; 5 mg/kg daily intra-peritoneal,10 to 20 min
same,adverse effects,"[6]; 5 mg/kg daily intra-peritoneal in saline, 28 days",no adverse effects were noted with the exception of minor cramping
same,body weight,"[6]; 5 mg/kg daily intra-peritoneal, 28 days",unaltered
same,steady state haemopoiesis (blood and bone marrow samples),"[6]; end of treatment period, data not shown",no changes were observed
same,tolerability at 10 mg/kg,A549 xenograft; 10 mg/kg daily i.p.,well tolerated without adverse effects
same,tumours smaller than in mice receiving saline,"A549 xenograft; after two weeks, 2 mg/kg for two days, then 5 mg/kg daily i.p.",20%
same,"growth of A549 xenograft, in words","A549 xenograft; daily i.p., 2 then 5 then 10 mg/kg",retarded
same,effect on SK activity,sphingosine kinases (SK),does not affect SK activity
